Data reported in US10213429B2, “Imidazo-pyrazinyl derivatives useful as soluble guanylate cyclase activators” (Merck Sharp & Dohme Corp., priority 2015, dated 2019).

Assays:
[1] = tested on: Spontaneously hypertensive rats (SHR); test: Acute Efficacy in Spontaneously Hypertensive Rats (SHR), telemetry blood pressure; format: in vivo, rat; conditions: SHR male
Excerpt: Acute Efficacy in Spontaneously Hypertensive Rats (SHR)
Spontaneously hypertensive rats (SHR, male, Charles River) were implanted with DSI TA11PA-C40 telemetry device (Data Sciences, Inc., St. Paul, Minn.) under isoflurane or ketamine/metomidine anesthesia. The telemetry unit catheter was inserted into the descending aorta via the femoral artery and the telemetry device was implanted subcutaneously in the left flank area. Animals were allowed to recover from surgery for 14 days before the start of any studies. Blood pressure, heart rate, and activity signals from conscious, freely moving rats were recorded continuously for 30 seconds every 10 minutes. On the day prior to administration of compound, a single oral dose of vehicle (10% transcutol/20% Cremophor/70% water) was administered to all animals to establish baseline control data. The blood pressure lowering efficacy of compound (PO) or vehicle was evaluated following a single oral gavage. Data were collected as hourly averages, and changes in blood pressure were calculated by subtracting control baseline data on an hourly basis. Animals were maintained on normal diet with a 12 hour light-dark cycle.
Maximum peak decreases of systolic blood pressure (SBP) in SHR at a particular P.O. dose (mpk milligrams per kilogram) for the following representative compounds are provided. • Category A=SBP in SHRs<20 mmHg; Category B=SBP in SHRs 20-40 mmHg; • Category C=SBP in SHRs>40 mmHg

sGC α1/β1 heterodimer = molecular target: T1, sGC α1/β1 heterodimer (Homo sapiens, UniProt Q02108+Q02153); test: Cell-Based sGC Functional Assay (CASA Assay), cGMP by HTRF in CHO-K1/sGC cells; conditions: for Emax: CHO-K1, percent activation relative to maximum cGMP production of Compound A (= 100%), read-out: % Act.; for EC50: cGMP production, 1 hr at 37° C., 4P fit, presence or absence of 1 μM DETA-NO not given, read-out: IP (nM) (inflection point)
T1 construct: expressed in transfected cells; host or cells: CHO-K1 (clone #7, CHO-K1/sGC)
T1 sequence (Q02108 1-690): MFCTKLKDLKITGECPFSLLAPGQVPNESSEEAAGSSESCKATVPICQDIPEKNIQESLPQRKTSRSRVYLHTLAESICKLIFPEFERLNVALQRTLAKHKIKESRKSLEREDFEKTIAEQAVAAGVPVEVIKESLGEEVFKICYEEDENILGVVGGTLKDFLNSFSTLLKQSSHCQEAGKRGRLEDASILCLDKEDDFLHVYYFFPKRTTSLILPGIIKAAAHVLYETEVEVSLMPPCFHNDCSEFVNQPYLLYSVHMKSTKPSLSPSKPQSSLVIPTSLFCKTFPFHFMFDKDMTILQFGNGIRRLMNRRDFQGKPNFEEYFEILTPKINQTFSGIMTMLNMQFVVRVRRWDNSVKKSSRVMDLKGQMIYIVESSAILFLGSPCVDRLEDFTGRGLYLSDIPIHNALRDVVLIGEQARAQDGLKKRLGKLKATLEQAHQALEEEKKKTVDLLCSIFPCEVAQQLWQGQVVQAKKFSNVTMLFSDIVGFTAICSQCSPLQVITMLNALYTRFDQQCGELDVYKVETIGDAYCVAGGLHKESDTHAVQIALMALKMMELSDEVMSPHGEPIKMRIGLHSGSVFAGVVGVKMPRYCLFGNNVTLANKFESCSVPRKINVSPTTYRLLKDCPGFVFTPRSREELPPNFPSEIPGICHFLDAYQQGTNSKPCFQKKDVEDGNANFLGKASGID
T1 sequence (Q02153 1-619): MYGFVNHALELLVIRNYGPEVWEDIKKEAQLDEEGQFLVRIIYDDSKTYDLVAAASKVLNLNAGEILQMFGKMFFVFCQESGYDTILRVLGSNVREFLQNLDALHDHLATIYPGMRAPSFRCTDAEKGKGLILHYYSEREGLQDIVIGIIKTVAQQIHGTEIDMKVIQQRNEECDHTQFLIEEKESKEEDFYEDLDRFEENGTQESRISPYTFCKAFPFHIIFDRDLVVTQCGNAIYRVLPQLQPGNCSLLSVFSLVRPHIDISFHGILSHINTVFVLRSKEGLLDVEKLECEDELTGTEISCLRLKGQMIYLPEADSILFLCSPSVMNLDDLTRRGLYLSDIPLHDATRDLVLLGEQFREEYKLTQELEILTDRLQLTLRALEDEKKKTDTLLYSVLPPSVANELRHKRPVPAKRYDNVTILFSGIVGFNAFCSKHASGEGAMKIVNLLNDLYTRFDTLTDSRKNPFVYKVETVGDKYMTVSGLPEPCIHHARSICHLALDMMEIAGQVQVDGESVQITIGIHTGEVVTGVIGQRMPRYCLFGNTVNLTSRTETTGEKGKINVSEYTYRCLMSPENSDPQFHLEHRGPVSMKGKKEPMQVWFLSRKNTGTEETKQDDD
Procedure, shortened: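 CHO-K1 cells stably expressing human sGC α1/β1, in EBSS buffer with 5 mM MgCl2, 10 mM HEPES, 0.05% BSA and 0.5 mM IBMX, incubated with compound (2.5% DMSO) ± 1 μM DETA-NO, 1 h, 37 °C. Intracellular cGMP read by HTRF; activity as % of reference activator maximum, IP from 4-parameter fit.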

SMILES | Emax (sGC α1/β1 heterodimer) [%] | EC50 (sGC α1/β1 heterodimer) [nM] | Cat. (maximum peak decrease of systolic blood pressure (SBP) in SHR) ([1]; single oral dose 1.0 mpk P.O.) | Cat. (maximum peak decrease of systolic blood pressure (SBP) in SHR) ([1]; single oral dose 0.3 mpk P.O.) | Cat. (maximum peak decrease of systolic blood pressure (SBP) in SHR) ([1]; single oral dose 3.0 mpk P.O.)
CC1(c2ccc(F)cc2)C(=O)Nc2nc(-c3cn4ccnc4c(CCC(F)(F)C(F)(F)F)n3)ncc21 (stereo not drawn) [Example 1A, 5-(4-Fluorophenyl)-5-methyl-2-(8-(3,3,4,4,4-pentafluorobutyl)imidazo[1,2-a]pyrazin-6-yl)-5H-pyrrolo[2,3-d]pyrimidin-6(7H)-one] | 121 | 228 | B (Category B=SBP in SHRs 20-40 mmHg) | – | –
CC1(c2ccc(F)cn2)C(=O)Nc2nc(-c3cn4ccnc4c(Cc4ccc(F)cc4)n3)ncc21 (stereo not drawn) [Example 5B, 2-(8-(4-fluorobenzyl)imidazo[1,2-a]pyrazin-6-yl)-5-(5-fluoropyridin-2-yl)-5-methyl-5H-pyrrolo[2,3-d]pyrimidin-6(7H)-one] | 117 | 30 | – | B (Category B=SBP in SHRs 20-40 mmHg) | –
CCCCc1nc(-c2nc(O)c3c(n2)NC(=O)C3(c2ccc(Cl)cc2)C2CC2)cn2ccnc12 (stereo not drawn) [Example 23B, 2-(8-butylimidazo[1,2-a]pyrazin-6-yl)-5-(4-chlorophenyl)-5-cyclopropyl-4-hydroxy-5H-pyrrolo[2,3-d]pyrimidin-6(7H)-one] | 146 | 204 | A (Category A=SBP in SHRs<20 mmHg) | – | –
CC1(c2ccc(F)cc2)C(=O)Nc2nc(-c3cn4ccnc4c(CCC(F)(F)C(F)(F)F)n3)nc(C(N)=O)c21 (stereo not drawn) [Example 86A, 5-(4-Fluorophenyl)-5-methyl-6-oxo-2-(8-(3,3,4,4,4-pentafluorobutyl)imidazo[1,2-a]pyrazin-6-yl)-6,7-dihydro-5H-pyrrolo[2,3-d]pyrimidine-4-carboxamide] | 109 | 57 | B (Category B=SBP in SHRs 20-40 mmHg) | – | –
CC1(c2ccc(F)cc2)C(=O)Nc2nc(-c3cn4ccnc4c(OCCC4CC4)n3)nc(O)c21 (stereo not drawn) [Example 93A, 2-(8-(2-Cyclopropylethoxy)imidazo[1,2-a]pyrazin-6-yl)-5-(4-fluorophenyl)-4-hydroxy-5-methyl-5H-pyrrolo[2,3-d]pyrimidin-6(7H)-one] | 86 | 163 | A (Category A=SBP in SHRs<20 mmHg) | – | –
O=C1Nc2nc(-c3cn4ccnc4c(CCCC(F)(F)F)n3)ncc2C1(c1ccc(F)c(F)c1)C1CC1 (stereo not drawn) [Example 44A, 5-cyclopropyl-5-(3,4-difluorophenyl)-2-(8-(4,4,4-trifluorobutyl)imidazo[1,2-a]pyrazin-6-yl)-5H-pyrrolo[2,3-d]pyrimidin-6(7H)-one] | 150 | 114 | B (Category B=SBP in SHRs 20-40 mmHg) | – | –
CC1(c2ccc(Cl)cn2)C(=O)Nc2nc(-c3cn4ccnc4c(CCC(F)(F)C(F)(F)F)n3)ncc21 (stereo not drawn) [Example 36A, 5-(5-Chloropyridin-2-yl)-5-methyl-2-(8-(3,3,4,4,4-pentafluorobutyl)imidazo[1,2-a]pyrazin-6-yl)-5H-pyrrolo[2,3-d]pyrimidin-6(7H)-one] | 104 | 54 | – | A (Category A=SBP in SHRs<20 mmHg) | –
CC1(c2ccc(F)cc2)C(=O)Nc2nc(-c3cn4ccnc4c(CC4CCC4)n3)nc(O)c21 (stereo not drawn) [Example 29A, 2-(8-(cyclobutylmethyl)imidazo [1,2-a]pyrazin-6-yl)-5-(4-fluorophenyl)-4-hydroxy-5-methyl-5H-pyrrolo[2,3-d]pyrimidin-6(7H)-one] | 92 | 225 | – | – | B (Category B=SBP in SHRs 20-40 mmHg)
CCCc1nc(-c2ncc3c(n2)NC(=O)C3(C)c2ccc(Cl)c(F)c2)cn2ccnc12 (stereo not drawn) [Example 38B, 5-(4-chloro-3-fluorophenyl)-5-methyl-2-(8-propylimidazo[1,2-a]pyrazin-6-yl)-5H-pyrrolo[2,3-d]pyrimidin-6(7H)-one] | 135 | 173 | A (Category A=SBP in SHRs<20 mmHg) | – | –
CCCCc1nc(-c2ncc3c(n2)NC(=O)C3(c2ccc(Cl)cc2)C2CC2)cn2ccnc12 (stereo not drawn) [Example 49B, 2-(8-butylimidazo[1,2-a]pyrazin-6-yl)-5-(4-chlorophenyl)-5-cyclopropyl-5H-pyrrolo[2,3-d]pyrimidin-6(7H)-one] | 157 | 24 | B (Category B=SBP in SHRs 20-40 mmHg) | – | –

More lines, main results first:

Emax (sGC α1/β1 heterodimer) [%] | EC50 (sGC α1/β1 heterodimer) [nM] | SMILES | Cat. (maximum peak decrease of systolic blood pressure (SBP) in SHR) ([1]; single oral dose 1.0 mpk P.O.) | Cat. (maximum peak decrease of systolic blood pressure (SBP) in SHR) ([1]; single oral dose 0.3 mpk P.O.) | Cat. (maximum peak decrease of systolic blood pressure (SBP) in SHR) ([1]; single oral dose 3.0 mpk P.O.)
63 | 37 | CCCCc1nc(-c2ncc3c(n2)NC(=O)C3(C)c2ccc(F)cn2)cn2ccnc12 (stereo not drawn) [Example 82B, 2-(8-butylimidazo[1,2-a]pyrazin-6-yl)-5-(5-fluoropyridin-2-yl)-5-methyl-5H-pyrrolo[2,3-d]pyrimidin-6(7H)-one] | C (Category C=SBP in SHRs>40 mmHg) | – | –
82 | 459 | CC1(c2ccc(F)cn2)C(=O)Nc2nc(-c3cn4ccnc4c(CC4CCC4)n3)nc(O)c21 (stereo not drawn) [Example 31B, 2-(8-(cyclobutylmethyl)imidazo [1,2-a]pyrazin-6-yl)-5-(5-fluoropyridin-2-yl)-4-hydroxy-5-methyl-5H-pyrrolo[2,3-d]pyrimidin-6(7H)-one] | – | – | B (Category B=SBP in SHRs 20-40 mmHg)
91 | 68 | CC1(c2ccc(Cl)cn2)C(=O)Nc2nc(-c3cn4ccnc4c(CCCC(F)(F)F)n3)ncc21 (stereo not drawn) [Example 59A, 5-(5-chloropyridin-2-yl)-5-methyl-2-(8-(4,4,4-trifluorobutyl)imidazo[1,2-a]pyrazin-6-yl)-5H-pyrrolo[2,3-d]pyrimidin-6(7H)-one] | B (Category B=SBP in SHRs 20-40 mmHg) | – | –
115 | 880 | CC1(c2ccc(F)cn2)C(=O)Nc2nc(-c3cn4ccnc4c(CCCC(F)(F)F)n3)nc(O)c21 (stereo not drawn) [Example 32B, 5-(5-fluoropyridin-2-yl)-4-hydroxy-5-methyl-2-(8-(4,4,4-trifluorobutyl)imidazo[1,2-a]pyrazin-6-yl)-5H-pyrrolo[2,3-d]pyrimidin-6(7H)-one] | B (Category B=SBP in SHRs 20-40 mmHg) | – | –
89 | 436 | CC1(c2ccc(F)cc2)C(=O)Nc2nc(-c3cn4ccnc4c(CCCC(F)(F)F)n3)nc(O)c21 (stereo not drawn) [Example 30A, 5-(4-fluorophenyl)-4-hydroxy-5-methyl-2-(8-(4,4,4-trifluorobutyl)imidazo[1,2-a]pyrazin-6-yl)-5H-pyrrolo[2,3-d]pyrimidin-6(7H)-one] | B (Category B=SBP in SHRs 20-40 mmHg) | – | –
